Source: ChEMBL document CHEMBL4828714, “Mutasynthesis of Antibacterial Halogenated Actinomycin Analogues” (J Nat Prod, 2021)
Converted amounts (≈) assume the structure as drawn. Numbered stars: 1 amine (or outer) side, 2 acyl side, 3 side chain; on linkers, the order of the positions; unused ones are H or OH. Bridge positions count the residues as written; N and C are the ends. Square brackets hold non-standard residues; d marks the D form. Peptide text beside a SMILES is read from it. I, II: the chains in the order shown. Actinocin(1to9) = Cc1c2oc3c(C)ccc(C(=O)[*:2])c3nc-2c(C(=O)[*:1])c(N)c1=O; NMeV = CN[C@H](C(=O)O)C(C)C; Sar = CNCC(=O)O

How the values were obtained:
[1] = test system: Staphylococcus aureus; assay: Antimicrobial activity against Staphylococcus aureus Sau 745524 assessed as inhibition of bacterial growth incubated for 16 to 18 hrs by broth micro dilution technique; format: functional; settings: time 16-18 hrs
[2] = test system: MCF7; assay: Cytotoxicity against human MCF7 cells assessed as growth inhibition incubated for 68 hrs by MTT assay; format: functional, cell-based; settings: MCF7, 68 h
[3] = test system: Staphylococcus aureus; assay: Antimicrobial activity against Staphylococcus aureus Sau 6917 assessed as inhibition of bacterial growth incubated for 16 to 18 hrs by broth micro dilution technique; format: functional; settings: time 16-18 hrs
[4] = test system: Bacillus thuringiensis; assay: Antimicrobial activity against Bacillus thuringiensis BT01 assessed as inhibition of bacterial growth incubated for 16 to 18 hrs by broth micro dilution technique; format: functional; settings: time 16-18 hrs
[5] = test system: BEAS-2B; assay: Cytotoxicity against human BEAS-2B cells assessed as growth inhibition incubated for 68 hrs by MTT assay; format: cell-based
[6] = test system: Staphylococcus aureus; assay: Antimicrobial activity against Staphylococcus aureus ATCC 29213 assessed as inhibition of bacterial growth incubated for 16 to 18 hrs by broth micro dilution technique; format: functional; settings: time 16-18 hrs
[7] = test system: L02; assay: Cytotoxicity against human L02 cells assessed as growth inhibition incubated for 68 hrs by MTT assay; format: cell-based; settings: L02, 68 h
[8] = test system: Candida albicans; assay: Antimicrobial activity against Candida albicans assessed as inhibition of bacterial growth incubated for 16 to 18 hrs by broth micro dilution technique; format: functional; settings: time 16-18 hrs
[9] = test system: Staphylococcus aureus; assay: Antimicrobial activity against Staphylococcus aureus Sau 16162 assessed as inhibition of bacterial growth incubated for 16 to 18 hrs by broth micro dilution technique; format: functional; settings: time 16-18 hrs
[10] = test system: HepG2; assay: Cytotoxicity against human HepG2 cells assessed as growth inhibition incubated for 68 hrs by MTT assay; format: functional, cell-based; settings: HepG2, 68 h
[11] = test system: Staphylococcus aureus; assay: Antimicrobial activity against Staphylococcus aureus CCAM 3090 assessed as inhibition of bacterial growth incubated for 16 to 18 hrs by broth micro dilution technique; format: functional; settings: time 16-18 hrs
[12] = test system: Enterococcus faecalis; assay: Antimicrobial activity against Enterococcus faecalis ATCC 29212 assessed as inhibition of bacterial growth incubated for 16 to 18 hrs by broth micro dilution technique; format: functional; settings: time 16-18 hrs
[13] = test system: HL-60; assay: Cytotoxicity against human HL-60 cells assessed as growth inhibition incubated for 68 hrs by MTT assay; format: functional, cell-based; settings: HL-60, 68 h
[14] = test system: Staphylococcus aureus; assay: Antimicrobial activity against Staphylococcus aureus Sau 1862 assessed as inhibition of bacterial growth incubated for 16 to 18 hrs by broth micro dilution technique; format: functional; settings: time 16-18 hrs
[15] = test system: A549; assay: Cytotoxicity against human A549 cells assessed as growth inhibition incubated for 68 hrs by MTT assay; format: functional, cell-based; settings: A549, 68 h
[16] = test system: Micrococcus luteus; assay: Antimicrobial activity against Micrococcus luteus ML01 assessed as inhibition of bacterial growth incubated for 16 to 18 hrs by broth micro dilution technique; format: functional; settings: time 16-18 hrs
[17] = test system: RKO; assay: Cytotoxicity against human RKO cells assessed as growth inhibition incubated for 68 hrs by MTT assay; format: functional, cell-based
[18] = test system: Enterococcus faecium; assay: Antimicrobial activity against Enterococcus faecium ATCC 35682 assessed as inhibition of bacterial growth incubated for 16 to 18 hrs by broth micro dilution technique; format: functional; settings: time 16-18 hrs
[19] = test system: HeLa; assay: Cytotoxicity against human HeLa cells assessed as growth inhibition incubated for 68 hrs by MTT assay; format: functional, cell-based
[20] = test system: Staphylococcus aureus; assay: Antimicrobial activity against Staphylococcus aureus Sau 991 assessed as inhibition of bacterial growth incubated for 16 to 18 hrs by broth micro dilution technique; format: functional; settings: time 16-18 hrs
[21] = test system: Staphylococcus aureus; assay: Antimicrobial activity against Staphylococcus aureus Sau 718306 assessed as inhibition of bacterial growth incubated for 16 to 18 hrs by broth micro dilution technique; format: functional; settings: time 16-18 hrs

Row | Structure (SMILES) | MIC [1] [µg/mL] | IC50 [2] [µM] | MIC [3] [µg/mL] | MIC [4] [µg/mL] | IC50 [5] [µM] | MIC [6] [µg/mL] | IC50 [7] [µM] | MIC [8] [µg/mL] | MIC [9] [µg/mL] | IC50 [10] [µM] | MIC [11] [µg/mL] | MIC [12] [µg/mL] | IC50 [13] [µM] | MIC [14] [µg/mL] | IC50 [15] [µM] | MIC [16] [µg/mL] | IC50 [17] [µM] | MIC [18] [µg/mL] | IC50 [19] [µM] | MIC [20] [µg/mL] | other results
1 | COc1c2oc3c(OC)ccc(C(=O)N[C@@H]4C(=O)N[C@H](C(C)C)C(=O)N5CCC[C@H]5C(=O)N(C)CC(=O)N(C)[C@@H](C(C)C)C(=O)O[C@@H]4C)c3nc-2c(C(=O)N[C@@H]2C(=O)N[C@H](C(C)C)C(=O)N3CCC[C@H]3C(=O)N(C)CC(=O)N(C)[C@@H](C(C)C)C(=O)O[C@@H]2C)c(N)c1=O | 2 (≈ 1.55 µM) | 4.1 | 2 (≈ 1.55 µM) | 4 (≈ 3.11 µM) | 2.7 | 2 (≈ 1.55 µM) | 3.9 | 16 (≈ 12.4 µM) | 8 (≈ 6.21 µM) | 4 | 2 (≈ 1.55 µM) | 8 (≈ 6.21 µM) | 0.2 | 2 (≈ 1.55 µM) | 18.5 | 0.5 (≈ 0.388 µM) | 1.7 | 8 (≈ 6.21 µM) | 4.3 | 2 (≈ 1.55 µM) | MIC [21]: 2 µg/mL (≈ 1.55 µM)
2 | Cc1c2oc3c(C)ccc(C(=O)N[C@@H]4C(=O)N[C@H](C(C)C)C(=O)N5CCC[C@H]5C(=O)N(C)CC(=O)N(C)[C@@H](C(C)C)C(=O)O[C@@H]4C)c3nc-2c(C(=O)N[C@@H]2C(=O)N[C@H](C(C)C)C(=O)N3CCC[C@H]3C(=O)N(C)CC(=O)N(C)[C@@H](C(C)C)C(=O)O[C@@H]2C)c(N)c1=O [DACTINOMYCIN] (I: T[dV]P[Sar][NMeV] / II: T[dV]P[Sar][NMeV]; ester I:1-I:C, II:1-II:C; linker I:N-II:N via Actinocin(1to9)) | 0.06 (≈ 0.0478 µM) | 0.2 | 0.06 (≈ 0.0478 µM) | 0.06 (≈ 0.0478 µM) | 0.7 | 0.06 (≈ 0.0478 µM) | 0.5 | < 0.06 | 1 (≈ 0.797 µM) | 0.01 | 0.06 (≈ 0.0478 µM) | < 0.06 | 0.02 | 0.06 (≈ 0.0478 µM) | 3.8 | < 0.06 | 0.03 | 0.13 (≈ 0.104 µM) | 0.12 | 0.06 (≈ 0.0478 µM) | MIC [21]: 0.06 µg/mL (≈ 0.0478 µM)
